Experimental data: US20210353749A1, “GUANABENZ AS AN ADJUVANT FOR IMMUNOTHERAPY” (UNIVERSITÉ CATHOLIQUE DE LOUVAIN, priority 2018, published 2021)

Tests used:
[1] = test system: Mouse TCRP1A CD8+ T cells; assay: CD107 cytotoxicity assay (degranulation assay), mouse T cells; assay type: cell-based; settings: 16 hours
Method: Mouse TCRP1A CD8^+ T cells: P1A-specific (TCRP1A) CD8^+ T cells were isolated from spleens and lymph nodes of TCRP1A mice using anti-mouse CD8a (Ly-2) MicroBeads (Miltenyi Biotec).
CD107 cytotoxicity assay (Degranulation assay): TCRP1A CD8^+ T cells were plated at 50,000 cells per well in a 96 U plate with different concentrations of guanabenz and incubated at 37° C. overnight prior to their use in the assay on the next day. On the day of the assay, the culture supernatant was removed from the cells and the cells were washed once with complete medium to remove the drug. The target cells L1210-P1A-B7.1 were added to the wells at a ratio of 1:1. Control wells containing either only T cells or target cells were also included for each plate. CD107a-APC was added to each well at the same time as addition of the target cells. The plate was then incubated at 37° C. for 90 minutes. At the end of the incubation period the cells were harvested and washed once with PBS. They were stained with anti-mouse CD8-Bv421 antibody for 15 minutes. The cells were then washed and resuspended in PBS and analyzed using FACS Fortessa flow cytometer. Human CD8^+ T cell degranulation was evaluated in a similar way. To induce CD8^+ T cell degranulation, T2 cells loaded with synthetic WT1126-134 peptide (10^6 T2 cells were incubated for 1 hour in 200 μL Optimem medium with 100 μmol/L synthetic peptide at 37° C.) were used as target cells.
T cells were incubated with guanabenz (10, 20, or 40 μM) for 16 h to 24 h as indicated. Mice received a daily intra-peritoneal injection of guanabenz (5 mg/kg) or vehicle (PBS) from the day of randomization (and the day of ACT when applicable) until the day of sacrifice.
CD107 cytotoxicity assay (Degranulation assay): the assay was carried out as described hereinabove (see Example 1) with different 20 μM guanabenz or different concentrations of alprenolol or sunitinib, as indicated.
T cells were incubated with 20 μM guanabenz for 16 h as indicated.
T cells were incubated with alprenolol (5 or 20 μM) for 16 h as indicated. […]

TiRP tumor = assay: Immunodeficient Rag1-/- TiRP+/+ mice, TiRP tumor; assay type: in vivo, mouse; settings: Rag1-/- TiRP+/+ mice lacking T cells, 5 mg/kg i.p. daily from about 500 mm^3 (day 0) to day 15, vs control; FIG. 4
Method: FIG. 4 is a graph showing the tumor size in the immunodeficient Rag1^-/- TiRP^+/+ mice that were injected with 4-OH-Tamoxifen to induce a TiRP tumor. When the tumor reached 500 mm^3 (day 0), the tumor bearing mice were randomized and received daily injections of guanabenz (5 mg/kg, i.p.) or vehicle (PBS, i.p.) until the day of sacrifice (day 15). A fresh solution of […]-Tamoxifen was prepared by dissolving […]-Tamoxifen ([…]) in 100% ethanol and mineral oil (ratio 1:9) followed by 30-min sonication, and injected subcutaneously (2 mg/200 μL per mouse) in the neck area of gender-matched 7 weeks old TiRP mice. Tumor appearance was monitored daily and tumors were measured three times/week. Tumor volume (in mm^3) was calculated by the following formula: Volume=width^2×length/2. Tumor-bearing TiRP mice were randomized based on the tumor size when average volume was 400 mm^3, 500 mm^3 or 1000 mm^3 as indicated. T cells were incubated with guanabenz (10, 20, or 40 μM) for 16 h to 24 h as indicated. Mice received a daily intra-peritoneal injection of guanabenz (5 mg/kg) or vehicle (PBS) from the day of randomization (and the day of ACT when applicable) until the day of sacrifice. As a control, tumors were induced in immunodeficient TiRP mice lacking T cells due to the deletion of the Rag1 gene (Rag 1^-/- TiRP^+/+ mice). […]

[2] = test system: P1A-antigen specific CD8+ T cells; assay: Immunization with irradiated L1210-P1A-B7.1 tumor cells; assay type: in vivo, DBA/2 mice; settings: 100 μg (5 mg/kg) guanabenz with vaccine, vs negative control and immunization alone
Method: Immunization with irradiated L1210-P1A-B7.1 tumor cells: DBA/2 mice received a vaccine consisting of 1 million irradiated L1210-P1A-B7.1 cells expressing the P1A antigen either alone or with 100 μg (5 mg/kg) guanabenz. When administered, guanabenz was given 1 hour before the immunization and daily after the immunization.
Tetramer staining: one week after the immunization, the spleen of each mouse was collected. Isolated splenocytes from the immunized mice were cultured and restimulated with L1210-P1A-B7.1 cells at a ratio of 1:1. Four days after restimulation, P1A-antigen specific CD8^+ T cells were stained with PE-conjugated P1A tetramer and APC-conjugated anti-CD8 antibody.
Interferon gamma secretion: one week after the immunization, the spleen of each mouse was collected. Splenocytes from the immunized mice were restimulated with L1210-P1A-B7.1 cells at a ratio of 1:1. Four days after restimulation, the splenocytes were collected and plated at 50,000 cells per well in 96 U plate. L1210-P1A-B7.1 cells were added to each well as target cells at a ratio of 1:1. The plate was then incubated at 37° C. overnight. At the end of the incubation, the supernatant from the cells were collected and the amount of secreted IFNγ was measured by ELISA according to the manufacturer's instruction (R&D). […]

SMILES: NC(N)=N/N=C/c1c(Cl)cccc1Cl [guanabenz, 2-[(E)-(2,6-dichlorophenyl)methylideneamino]guanidine]
- T cell degranulation (FACS detection of CD107a) ([1]; guanabenz 20 μM, vs control, FIG. 12A): did significantly increase
- T cell degranulation (FACS detection of CD107a) ([1]; guanabenz 10, 20 or 40 μM, co-culture with L1210-P1A-B7.1 target cells, FIG. 1A): increased
- TiRP tumor growth (TiRP tumor): did not induce a decrease
- splenocyte IFNγ secretion (ELISA) ([2]; activation with L1210-P1A-B7.1 cells, FIG. 7B): significant increase
- percentage of P1A-antigen specific CD8+ T cells among total CD8+ T cells after restimulation with the P1A-antigen ([2]; splenocytes one week after immunization, FIG. 7A): significant increase
